Data set [1] deals with viral amplicon plant cell cultures. The note with it: cited from earlier work.
Another data set concerns XVE system. Conditions: cited from earlier work.
Data set [2] deals with CMViva inducible cell cultures. Description: Effect of inducer concentration on rAAT production, CMViva inducible cell cultures. It is filed as cell-based, Nicotiana benthamiana. Here is the method: (§1) The inducer, 17-beta-estradiol, dissolved in DMSO, was added to cultures of XVE and CMViva transgenic cell lines at a specific time after inoculation to start induction. The final concentration of DMSO was not higher than 0.3%.
(§2) For inducible systems, the correct inducer concentration and timing of application are critical to maximize recombinant protein expression. Two inducible expression systems were evaluated for rAAT protein production. The concentration of inducer (COI) required for inducing maximum rAAT production and the close-response of inducible plant cell cultures were determined. Inducer was added to the XVE and CMViva cell suspensions 10 days after inoculation (100 mL cell culture in a 250 mL Erlenmeyer flask, 140 rpm and 25° C. under ambient light) to a final concentration of 0, 0.1, 0.5, 1, 2.5, 5, 10, 25, 50 or 100 μM. Samples were harvested 8 days after induction and total and functional extracellular rAAT were determined by ELISA (FIG. 8). In the absence of inducer, rAAT was not detected in XVE or CMViva cultures. There was a dose-dependent response in rAAT expression in XVE and CMViva cell cultures with added inducer, and both inducible systems allowed regulation of rAAT expression at inducer concentrations between 0.1 and 10 μM. Above approximately 10 μM estradiol, rAAT production leveled off in both XVE and CMViva systems. The CMViva system first responded at 0.1 μM while XVE required 2.5 μM. Higher extracellular rAAT productivity was produced in CMViva at a relatively low inducer concentration (0.5 μM) compared with that in XVE system (5 μM) and CMViva produced more functional rAAT at all inducer concentrations.

Data set [3] deals with XVE inducible cell cultures. Nature of the data set: Effect of inducer concentration on rAAT production, XVE inducible cell cultures. The format is cell-based, Nicotiana benthamiana. Here is the method: as §1
as §2, with “The CMViva system first responded at 0.1 μM while XVE required 2.5 μM. Higher extracellular rAAT productivity was produced in CMViva at a relatively low inducer concentration (0.5 μM) compared with that in XVE system (5 μM) and CMViva produced more functional rAAT at all inducer concentrations.” left out

The next data set has as its system N. benthamiana cultures. Description: Effects of estradiol on N. benthamiana cultures (toxicity, growth). It is filed as cell-based, Nicotiana benthamiana. Conditions: at up to 100 μM. The method, then:
as §2, with “Higher extracellular rAAT productivity was produced in CMViva at a relatively low inducer concentration (0.5 μM) compared with that in XVE system (5 μM) and CMViva produced more functional rAAT at all inducer concentrations.” left out

Setting [4] is: inducer added 10 days after inoculation, sampled 8 days after induction.

Consider `C[C@]12CC[C@@H]3c4ccc(O)cc4CC[C@H]3[C@@H]1CC[C@@H]2O` [estradiol, 17-β-estradiol], for which the “estradiol concentration giving GFP fluorescence” value in data set [1] (viral amplicon plant cell cultures) is recorded as 10 nM. In addition, the “estradiol concentration at saturation of GFP fluorescence” value in data set [1] (viral amplicon system in plant cell culture) is 0.1 to 1 µM. For the same molecule, the “estradiol concentration giving detectable GFP transcripts” value in the data set with XVE system (plants, XVE system) is on record as 8 nM. For the same molecule, the “estradiol concentration at saturation of GFP transcripts” value in the data set with XVE system (whole plants) was “around 5 μM”. The “inducer concentration giving higher extracellular rAAT productivity” value in data set [2] (flask cultures) was 0.5 µM; in data set [3] (flask cultures), 5 µM. The figures for the “estradiol concentration at which the system first responded (detectable rAAT)” value in data set [2] (setting [4]) and in data set [3] (setting [4]) were 0.1 µM and 2.5 µM, respectively. Also, the “lowest estradiol concentration with detectable rAAT expression” value in data set [2] (lowest concentration tested) was determined as 100 nM. Moreover, in the data set on N. benthamiana cultures, the “detrimental, toxic or growth-inhibiting effects on cultures” value is “no obvious detrimental, toxic, or growth-inhibiting effects”.

The values are drawn from patent US10421973B2, “Chemically inducible cucumber mosaic virus protein expression system” (THE REGENTS OF THE UNIVERSITY OF CALIFORNIA, priority 2006, dated 2019).
